Assay results: publication PMC8330742, “New benzothieno[2,3-c]pyridines as non-steroidal CYP17 inhibitors: design, synthesis, anticancer screening, apoptosis induction, and in silico ADME profile studies” (Journal of Enzyme Inhibition and Medicinal Chemistry, 2021)

Key:
[1] = system: SF-295; assay: NCI-60 SRB screen; type: cell-based, human; conditions: SF-295;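 as to IC50: half-maximal inhibitory concentration read as cell viability unlike GI50 net growth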
[2] = system: LOX IMVI; assay: NCI-60 SRB screen; type: cell-based, human;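 as to IC50: half-maximal inhibitory concentration read as cell viability unlike GI50 net growth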
[3] = system: MALME-3M; assay: NCI-60 SRB screen; type: cell-based, human;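 as to IC50: half-maximal inhibitory concentration read as cell viability unlike GI50 net growth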
[4] = system: M14; assay: NCI-60 SRB screen; type: cell-based, human; conditions: M14;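 as to IC50: half-maximal inhibitory concentration read as cell viability unlike GI50 net growth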
[5] = system: MDA-MB-435; assay: NCI-60 SRB screen; type: cell-based
[6] = system: SK-MEL-2; assay: NCI-60 SRB screen; type: cell-based, human; conditions: SK-MEL-2
[7] = system: SK-MEL-28; assay: NCI-60 SRB screen; type: cell-based; conditions: SK-MEL-28
[8] = system: SK-MEL-5; assay: NCI-60 SRB screen; type: cell-based, human; conditions: SK-MEL-5
[9] = system: UACC-257; assay: NCI-60 SRB screen; type: cell-based, human; conditions: UACC-257
[10] = system: UACC-62; assay: NCI-60 SRB screen; type: cell-based, human; conditions: UACC-62
[11] = system: IGROV1; assay: NCI-60 SRB screen; type: cell-based, human; conditions: IGROV1
[12] = system: OVCAR-3; assay: NCI-60 SRB screen; type: cell-based, human; conditions: OVCAR-3
[13] = system: OVCAR-4; assay: NCI-60 SRB screen; type: cell-based, human; conditions: OVCAR-4
[14] = system: OVCAR-8; assay: NCI-60 SRB screen; type: cell-based, human; conditions: OVCAR-8
[15] = system: NCI/ADR-RES; assay: NCI-60 SRB screen; type: cell-based, human
[16] = system: SK-OV-3; assay: NCI-60 SRB screen; type: cell-based, human; conditions: SK-OV-3
[17] = system: 786-0; assay: NCI-60 SRB screen; type: cell-based; conditions: 786-0
[18] = system: ACHN; assay: NCI-60 SRB screen; type: cell-based
[19] = system: CAKI-1; assay: NCI-60 SRB screen; type: cell-based, human; conditions: CAKI-1
[20] = system: SN12C; assay: NCI-60 SRB screen; type: cell-based, human; conditions: SN12C
[21] = system: TK-10; assay: NCI-60 SRB screen; type: cell-based, human; conditions: TK-10
[22] = system: UO-31; assay: NCI-60 SRB screen; type: cell-based, human; conditions: UO-31
[23] = system: panel of 60 cancer cell lines; assay: NCI-60 SRB screen, mean or range over the panel; type: cell-based, human; conditions: Homo sapiens
[24] = Homo sapiens, single dose 10^−5 M, read-out: Growth inhibition (%)
[25] = Homo sapiens, IGROV-1, five dose

Structure (SMILES): N#CC1C(=O)NC(c2ccccc2[N+](=O)[O-])c2sc3c(F)cccc3c21 (stereo not shown) [Compound 5c, 4-Cyano-8-fluoro-1-(2-nitrophenyl)-1,2-dihydro[1]benzothieno[2,3-c] pyridin-3(4H)-one]
- GI50 ([1]; Homo sapiens, five dose): 0.6 µM
- IC50 ([1]; Homo sapiens, five dose): 10.5 µM
- inhibition at 10 µM [1, 24]: 79.2%
- TGI ([1]; five dose): 100 µM
- GI50 ([2]; Homo sapiens, five dose): 15.3 µM
- IC50 ([2]; Homo sapiens, five dose): 25.1 µM
- inhibition at 10 µM [2, 24]: 8.64%
- TGI ([2]; five dose): 73.20 µM
- GI50 ([3]; Homo sapiens, five dose): 22.6 µM
- IC50 ([3]; Homo sapiens, five dose): 83.2 µM
- inhibition at 10 µM [3, 24]: 25.3%
- TGI ([3]; five dose): 100 µM
- GI50 ([4]; Homo sapiens, five dose): 16.3 µM
- IC50 ([4]; Homo sapiens, five dose): 28.2 µM
- inhibition at 10 µM [4, 24]: 7.3%
- TGI ([4]; five dose): 100 µM
- GI50 ([5]; Homo sapiens, MDA-MB-435): 27.2 µM
- IC50 ([5]; Homo sapiens, MDA-MB-435): 38 µM
- inhibition at 10 µM ([5]; Homo sapiens, MDA-MB-435, read-out: Growth inhibition (%)): -1.7%
- LC50 (50% lethal concentration) ([5]; Homo sapiens, MDA-MB-435, five dose): > 100 µM
- TGI ([5]; MDA-MB-435, five dose): 100 µM
- GI50 ([6]; Homo sapiens, five dose): 12.7 µM
- IC50 ([6]; Homo sapiens, five dose): 33.9 µM
- inhibition at 10 µM [6, 24]: 7.4%
- TGI ([6]; five dose): 100 µM
- GI50 ([7]; Homo sapiens, five dose): 31.2 µM
- IC50 ([7]; Homo sapiens, five dose): 66.1 µM
- LC50 (50% lethal concentration) ([7]; Homo sapiens, five dose): > 100 µM
- inhibition at 10 µM [7, 24]: -10.6%
- TGI ([7]; five dose): 100 µM
- GI50 ([8]; Homo sapiens, five dose): 13 µM
- IC50 ([8]; Homo sapiens, five dose): 20.9 µM
- inhibition at 10 µM [8, 24]: 24.9%
- TGI ([8]; five dose): 67.60 µM
- inhibition at 10 µM ([9]; Homo sapiens, UACC-275 (so in the source), single dose 10^−5 M, read-out: Growth inhibition (%)): 137%
- GI50 ([9]; Homo sapiens, five dose): 1.73 µM
- IC50 ([9]; Homo sapiens, five dose): 5.89 µM
- TGI ([9]; five dose): 100 µM
- GI50 ([10]; Homo sapiens, five dose): 0.36 µM
- IC50 ([10]; Homo sapiens, five dose): 1.78 µM
- inhibition at 10 µM [10, 24]: 90.6%
- TGI ([10]; five dose): 47.20 µM
- GI50 [11, 25]: 0.004 µM
- IC50 [11, 25]: 0.178 µM
- inhibition at 10 µM ([11]; Homo sapiens, IGROV-1, single dose 10^−5 M, read-out: Growth inhibition (%)): 99.7%
- TGI ([11]; five dose): 100 µM
- GI50 ([12]; Homo sapiens, five dose): 0.32 µM
- IC50 ([12]; Homo sapiens, five dose): 0.676 µM
- inhibition at 10 µM [12, 24]: 114%
- TGI ([12]; five dose): 87.80 µM
- GI50 ([13]; Homo sapiens, five dose): 1.61 µM
- IC50 ([13]; Homo sapiens, five dose): 24.5 µM
- inhibition at 10 µM [13, 24]: 100%
- TGI ([13]; five dose): 100 µM
- GI50 ([14]; Homo sapiens, five dose): 12 µM
- IC50 ([14]; Homo sapiens, five dose): 20.4 µM
- inhibition at 10 µM [14, 24]: 25.1%
- TGI ([14]; five dose): 100 µM
- GI50 ([15]; Homo sapiens, five dose): 8.21 µM
- IC50 ([15]; Homo sapiens, five dose): 16.6 µM
- inhibition at 10 µM [15, 24]: 31.5%
- TGI ([15]; five dose): 100 µM
- GI50 ([16]; Homo sapiens, five dose): 12 µM
- IC50 ([16]; Homo sapiens, five dose): 44.7 µM
- inhibition at 10 µM [16, 24]: 28.2%
- TGI ([16]; five dose): 100 µM
- TGI ([17]; five dose): 100 µM
- GI50 ([17]; Homo sapiens, five dose): 37 µM
- IC50 ([17]; Homo sapiens, five dose): 77.6 µM
- LC50 ([17]; Homo sapiens, five dose): > 100 µM
- inhibition at 10 µM [17, 24]: 10%
- GI50 ([18]; Homo sapiens, five dose): 15.7 µM
- IC50 ([18]; Homo sapiens, five dose): 29.5 µM
- LC50 (NCI-60 lethal concentration, 50% net cell kill) ([18]; Homo sapiens, five dose): > 100 µM
- inhibition at 10 µM [18, 24]: 34.3%
- TGI ([18]; five dose): 100 µM
- TGI ([19]; five dose): 100 µM
- GI50 ([19]; Homo sapiens, five dose): 0.17 µM
- IC50 ([19]; Homo sapiens, five dose): 0.562 µM
- inhibition at 10 µM [19, 24]: 94.7%
- inhibition at 10 µM ([20]; Homo sapiens, SN 12 C, single dose 10^−5 M, read-out: Growth inhibition (%)): 20.9%
- GI50 ([20]; Homo sapiens, five dose): 18.6 µM
- IC50 ([20]; Homo sapiens, five dose): 34.7 µM
- TGI ([20]; five dose): 100 µM
- GI50 ([21]; Homo sapiens, five dose): 17.7 µM
- IC50 ([21]; Homo sapiens, five dose): 72.4 µM
- inhibition at 10 µM [21, 24]: 58.9%
- TGI ([21]; five dose): 100 µM
- GI50 ([22]; Homo sapiens, five dose): 10.7 µM
- IC50 ([22]; Homo sapiens, five dose): 19.5 µM
- inhibition at 10 µM [22, 24]: 46.2%
- TGI ([22]; five dose): 55.20 µM
- GI50 ([23]; mean graph midpoint over all tested cell lines, five dose, read-out: MG-MID GI50): 0.21 µM
- inhibition at 10 µM ([23]; mean over the cell lines, single dose 10^−5 M, read-out: Mean growth inhibition (%)): 46.9%
